These results are taken from US10213451B2, “Methods and compounds for modulating the secretion or expression of adhesion proteins or angiopoietins of cells” (PACIFIC ARROW LIMITED, priority 2004, dated 2019).

Structures are written as SMILES. pIC50: −log10 of the molar value. In brackets after ≈: the same amount, converted by molar mass. Read-outs that look alike come from different tables or passages of the source.

The subject of series [1] is ovarian cancer cells. The series can be described thus: MTT assay, growth of ovarian cancer cells (FIG. 3A, 3B). It counts as cell-based. The note with it: Homo sapiens, read-out: IC50, inhibiting growth of ovarian cancer cells. How it is done: (§1) Cells. Human cancer cell lines were obtained from American Type Culture Collection: HTB-9 (bladder), HeLa-S3 (cervix), DU145 (prostate), H460 (lung), MCF-7 (breast), K562 (leukocytes), HCT116 (colon), HepG2 (liver), U2OS (bone), T98G (brain), SK-MEL-5 (Skin) and OVCAR-3 (ovary). The cells were grown in following culture media: HeLa-53, DU145, MCF-7, Hep-G2 and T98G are in MEN (Earle's salts); HTB-9, H460, K562 and OVCAR-3 in RPMI-1640; HCT-116 and U2OS in McCoy-5A. They are supplemented with 10% fetal calf serum, glutamine and antibiotics, and incubated in an incubator with 5% CO2 humidified at 37° C.
(§2) MTT Assay. The procedure for MTT assay followed the method described by Carmichael et al. (1987) with modifications. […] The formazan (product of the reduction of tetrazolium by viable cells) formed and was dissolved with DMSO and the O.D. at 490 nm, and was measured by an ELISA reader. The MTT level of the cells before drug-treatment was also measured (T0). The % cell-growth (% G) is calculated as: % G=(TD−T0/TC−T0)×100(1), where TC or TD represents O.D. readings of control or drug-treated cells. When T0>TD, then the cytotoxicity (LC) expressed as % of the control is calculated as: % LC=(TD−T0/T0)×100(2).

The subject of series [2] is skin cancer cells. The series can be described thus: MTT assay, growth of skin cancer cells. It counts as cell-based. To be noted: Homo sapiens. As for the experimental part: as §1, §2
The test system of series [3] is OVCA 429. The series can be described thus: MTT assay OVCA 429. Format: cell-based. To be noted: Homo sapiens, OVCA429; OVCA 429, Serous. As for the experimental part: (§3) Majority of ovarian cancers arise from the surface epithelium of ovary, most of them belong to the histological subtypes of clear cell and serous carcinoma. We obtained 10 more human ovarian carcinoma cell-lines of these histological subtypes for these studies. The inhibition activity exerted by Xanifolia-Y was determined with MTT assay.

The test system of series [4] is OVCA 433. The series can be described thus: MTT assay OVCA 433. To be noted: Homo sapiens, OVCA433; OVCA 433, Serous. It counts as cell-based. As for the experimental part:
as §3

Series [5] relates to Hey 8A. The series can be described thus: MTT assay Hey 8A. It counts as cell-based, human. As for the experimental part: as §3
Cells: Hey8A (human ovarian carcinoma cells) were grew in RPMI 1640 medium to 90% confluent before drug-treatment. Drug-treatment: Cells cultures were replaced with fresh RPMI medium containing either DMSO (as control) [D1]; or Xanifolia-Y (10, 15, or 20 ug/ml) [Y1, Y2 and Y3]. Aliquot of medium was removed as 0 hours sample and no FN was detected at this time. After 24 hours, aliquot of culture medium was taken out for Fibronectin determination (Western blot method). Cell viability at 24 hours was determined by MTT assay. Cultures were replaced with RPMI medium (5 ml) with MTT and incubated for an hour. The formation of formazan was dissolved in DMSO and OD at 570 nm was measured.

Series [6] has as its system swelling of the recto-anus of rats. The series can be described thus: Croton oil induced swelling of the recto-anus (hemorrhoids model). It counts as in vivo, SD rats. As for the experimental part: SD rats, male, age-matched 7-8 weeks old weighing 163±18 g were in the experiment. The tested animals were allowed to acclimate for a week.
A cotton swab with a diameter of 4 mm soaked with 0.16 mL of inducer (deionized water:pyridine:ethyl ether:6% croton oil/ethyl ether, 1:4:5:10) was applied to the rat's anus for 12 seconds. The final concentration of croton oil was 3%. The edema developed linearly until 7-8 hours after application and the severity of the edema was sustained for more than 24 hours. Twenty-four hours later, recto-anus tissue (approx. 10 mm long) was isolated after the rats were euthanized. The weights of rat body and recto-anus were measured. The recto-anus coefficient (RAC) was calculated using the formula: weight of recto-anus (mg)/body weight (g). RAC=weight of recto-anus (mg)/body weight (g)×100%
The rates were randomly divided into 5 groups: control, positive control and 3 test groups, and each group had 8 rats. The dose for 3 groups of rats are 10, 20 and 40 mg/kg. The dose of 0.5% CMC-Na for control group is the same as the each test group. The tested drug was fed into the stomach on the morning, once a day before the animal modeling for 5 days. The anus suppository was applied to positive control once after the animal modeling (1 mL/100 g). The weights of recto-anus and RACs were calculated, compared with the controls and subject to a student t-test.

For series [7], the system named is Hey8A cells attached to flasks. The series can be described thus: Inhibition of cell adhesion to flasks, Hey8A. It counts as cell-based, human. To be noted: 5 ug/ml, 5 hours. How it is done:
(§4) Methods and Results. ES2 or Hey8A cells were plated in T25 flasks with medium containing 5 ug/ml of Xanifolia-Y. Cultures were incubated for 5 hours. Attached cells were removed from flasks by trypsinization and the amounts were counted. Compare to no drug controls, 86±4% of ES2 cells and 67±8% of Hey8A cells were found attached to flasks under this condition. At 5 ug/ml Xanifolia-Y, over 90% of unattached cells are alive as determined by the trypan Blue exclusion assay and by their ability to re-attach to flasks when plating in medium without Xanifolia-Y. However, with 10 ug/ml Xanifolia-Y, less than 40% of cells attached to flasks and many of them are dead cells.
as §4, with “Results:” for “Results.”

In the case of `C/C=C(/C)C(=O)O[C@H]1[C@H](OC(=O)/C(C)=C\C)[C@@]2(CO)C(CC1(C)C)C1=CCC3[C@@]4(C)CC[C@H](O[C@@H]5OC(C(=O)O)[C@@H](O)C(O[C@@H]6O[C@@H](CO)C(O)C6O)C5O[C@@H]5OC(CO)[C@H](O)C(O)C5O)C(C)(C)C4CC[C@@]3(C)[C@]1(C)[C@@H](O)[C@H]2O` (stereo partly drawn) [Xanifolia-Y, 3-O-[β-D-galactopyranosyl (1→2)]-α-L-arabinofuranosy (1→3)-β-D-glucuronopyranosyl-21,22-O-diangeloyl-3β, 15α, 16α, 21β, 22α, 28-hexahydroxyolean-12-ene], the IC50 in series [1] was approximately 1.5 mg/L (≈ 1.31 µM); in series [2] (FIG. 3C, purified compound, read-out: IC50, inhibition of growth of skin cancer cells), 0.23 mg/L (≈ 0.202 µM); in series [2] (read-out: IC50 on skin cells), 12 mg/L (≈ 10.5 µM). Moreover, the pIC50 is 5.15 in series [3]; 5.06 in series [4]; 4.98 in series [5] (Homo sapiens, Hey 8A, Serous). Further, the “state of cells after drug-treatment” value in series [5] (Hey8A, 15 ug/ml and 20 ug/ml, 24 hours) is on record as “found dead (floating)”. Further, the activity at 10 µg/mL in series [5] (Homo sapiens, Hey8A, 10 ug/ml, 24 hours, read-out: growth of cells, % of control (MTT)) was 83%. Moreover, the values for the RAC in series [6] (10 mg/Kg), in series [6] (20 mg/Kg) and in series [6] (40 mg/Kg) were 1.83 ± 0.36, 1.61 ± 0.24 and 1.51 ± 0.23, respectively. In addition, the Reduction rate % turned out to be 21.5% in series [6] (10 mg/Kg), 30.9% in series [6] (20 mg/Kg) and 35.1% in series [6] (40 mg/Kg). Also, the results for the “Weight of recto-anus” value in series [6] (10 mg/Kg fed into the stomach once a day for 5 days), in series [6] (20 mg/Kg) and in series [6] (40 mg/Kg) were 4.68 ± 0.77 g, 4.28 ± 0.60 g and 3.97 ± 0.65 g, respectively. For the same compound, in series [7], the “cells attached to flasks, compared to no drug controls” value came to 67±8%.
